Results taken from patent US9802941B2, “Compounds and methods for inhibiting histone demethylases” (Gilead Sciences, Inc., priority 2014, dated 2017).
Where two headings read alike, the source gives them in different places.

What was measured:
Type in all cases: biochemical
[1] = target: T1, KDM4C (JMJD2C) (Homo sapiens, UniProt Q9H3R0); assay: Histone lysine demethylase AlphaLISA assay, KDM4C
T1 construct: KDM4C; BRIC, Denmark; 1-349; E. coli; host or cells: E. coli
T1 sequence (Q9H3R0 1-349): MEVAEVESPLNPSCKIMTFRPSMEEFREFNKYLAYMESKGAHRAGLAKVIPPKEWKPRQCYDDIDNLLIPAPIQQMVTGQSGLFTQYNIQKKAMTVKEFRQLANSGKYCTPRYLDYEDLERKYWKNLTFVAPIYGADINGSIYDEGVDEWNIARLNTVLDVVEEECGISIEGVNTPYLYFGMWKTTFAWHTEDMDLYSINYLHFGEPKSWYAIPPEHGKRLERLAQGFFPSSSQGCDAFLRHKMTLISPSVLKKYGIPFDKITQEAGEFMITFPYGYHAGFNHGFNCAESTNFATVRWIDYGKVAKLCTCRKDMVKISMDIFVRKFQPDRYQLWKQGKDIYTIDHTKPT
Method in brief: (§1)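 Steps: enzyme in Hepes buffer with 5 μM Fe(II) and 0.1% BSA; add to DMSO compound; incubate 10 minutes; add substrate, incubate at RT; add acceptor beads, then streptavidin donor beads; incubate in dark; read AlphaLISA.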

[2] = target: T2, KDM2B (FBXL10) (Homo sapiens, UniProt Q8NHM5); assay: Histone lysine demethylase AlphaLISA assay, KDM2B
T2 construct: KDM2B; BPS,; 1-650; Bac; purchased BPS Bioscience, US; host or cells: baculovirus system
T2 sequence (Q8NHM5 1-650): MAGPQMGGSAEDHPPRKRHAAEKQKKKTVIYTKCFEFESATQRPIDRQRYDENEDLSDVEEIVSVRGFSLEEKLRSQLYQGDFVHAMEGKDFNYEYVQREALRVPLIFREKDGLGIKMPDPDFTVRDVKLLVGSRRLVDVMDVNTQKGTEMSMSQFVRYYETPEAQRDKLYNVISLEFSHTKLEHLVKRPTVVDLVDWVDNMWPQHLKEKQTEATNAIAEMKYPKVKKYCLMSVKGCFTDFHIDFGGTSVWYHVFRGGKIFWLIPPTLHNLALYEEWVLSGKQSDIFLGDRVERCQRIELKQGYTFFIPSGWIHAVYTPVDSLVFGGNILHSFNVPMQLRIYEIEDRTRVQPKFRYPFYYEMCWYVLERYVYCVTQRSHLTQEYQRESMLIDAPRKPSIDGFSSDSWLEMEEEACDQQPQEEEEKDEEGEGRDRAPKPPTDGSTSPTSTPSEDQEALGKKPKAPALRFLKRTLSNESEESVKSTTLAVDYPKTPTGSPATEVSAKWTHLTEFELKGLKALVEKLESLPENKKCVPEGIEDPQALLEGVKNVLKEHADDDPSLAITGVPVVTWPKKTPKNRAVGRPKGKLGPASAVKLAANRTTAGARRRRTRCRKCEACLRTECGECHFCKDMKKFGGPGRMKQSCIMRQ
Method in brief: as §1

[3] = target: T3, PHF8 (KDM7) (Homo sapiens, UniProt Q9UPP1); assay: Histone lysine demethylase AlphaLISA assay, PHF8
T3 construct: KDM7 (PHF8); BRIC; 1-1322; Bac
Method in brief: as §1

[4] = target: T4, KDM5B (PLU-1) (Homo sapiens, UniProt Q9UGL1); assay: Histone lysine demethylase AlphaLISA assay, KDM5B
T4 construct: BRIC; 1-809; E. coli; host or cells: E. coli
T4 sequence (Q9UGL1 1-809): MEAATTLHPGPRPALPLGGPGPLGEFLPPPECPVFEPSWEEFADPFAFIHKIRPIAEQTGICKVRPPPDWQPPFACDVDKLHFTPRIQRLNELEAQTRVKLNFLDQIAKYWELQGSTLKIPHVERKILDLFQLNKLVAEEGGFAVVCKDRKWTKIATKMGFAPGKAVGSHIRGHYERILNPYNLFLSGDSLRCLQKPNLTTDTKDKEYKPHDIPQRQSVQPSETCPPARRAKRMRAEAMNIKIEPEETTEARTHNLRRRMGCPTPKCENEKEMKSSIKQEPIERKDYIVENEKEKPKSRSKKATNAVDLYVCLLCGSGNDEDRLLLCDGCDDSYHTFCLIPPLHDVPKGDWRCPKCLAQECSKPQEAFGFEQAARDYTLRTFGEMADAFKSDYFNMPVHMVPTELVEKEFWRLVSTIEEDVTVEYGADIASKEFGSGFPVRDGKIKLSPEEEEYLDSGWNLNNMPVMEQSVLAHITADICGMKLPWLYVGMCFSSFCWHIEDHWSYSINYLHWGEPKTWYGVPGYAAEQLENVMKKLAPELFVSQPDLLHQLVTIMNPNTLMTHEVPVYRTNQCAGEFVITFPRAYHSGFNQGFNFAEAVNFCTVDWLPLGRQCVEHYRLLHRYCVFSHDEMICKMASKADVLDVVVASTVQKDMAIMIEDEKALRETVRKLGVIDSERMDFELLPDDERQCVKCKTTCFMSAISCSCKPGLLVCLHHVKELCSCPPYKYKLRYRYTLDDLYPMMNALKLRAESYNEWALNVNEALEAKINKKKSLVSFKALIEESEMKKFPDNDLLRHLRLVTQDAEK
Method in brief: as §1

[5] = AlphaLISA assay, read-out: HDME Inhibition KDM4C (IC50)
[6] = AlphaLISA, in vitro, read-out: HDME Inhibition KDM4C
[7] = AlphaLISA, in vitro, read-out: HDME Inhibition KDM2B
[8] = AlphaLISA, in vitro, read-out: HDME Inhibition PHF8
[9] = AlphaLISA, in vitro, read-out: HDME Inhibition KDM5B
[10] = AlphaLISA assay, read-out: HDME Inhibition KDM5B (IC50)
[11] = AlphaLISA assay, read-out: HDME Inhibition PHF8 (IC50)

T3 sequence (Q9UPP1 37-440 limits assumed): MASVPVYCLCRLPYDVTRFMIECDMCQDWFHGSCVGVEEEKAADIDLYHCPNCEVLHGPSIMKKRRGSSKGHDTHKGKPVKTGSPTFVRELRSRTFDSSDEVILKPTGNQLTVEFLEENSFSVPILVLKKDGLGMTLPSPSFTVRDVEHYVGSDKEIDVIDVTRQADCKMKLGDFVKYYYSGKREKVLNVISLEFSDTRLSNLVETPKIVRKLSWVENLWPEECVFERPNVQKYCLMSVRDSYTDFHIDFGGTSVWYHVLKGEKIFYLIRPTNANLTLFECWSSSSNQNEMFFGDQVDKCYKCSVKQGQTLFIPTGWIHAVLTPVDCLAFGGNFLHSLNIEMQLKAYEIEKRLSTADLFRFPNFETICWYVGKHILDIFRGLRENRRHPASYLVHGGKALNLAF

Row | SMILES | IC50 [1, 5] | IC50 [1, 6] | IC50 [2, 7] | IC50 [3, 8] | IC50 [4] | IC50 [4, 9] | IC50 [4, 10] | IC50 ([2]; AlphaLISA assay, read-out: HDME Inhibition KDM2B (IC50)) | IC50 [3, 11]
1 | Cc1nc(CNCc2cc(C(=O)O)cc(CO)n2)n(Cc2ccc(F)cc2)c1C [Compound 83, 2-{[({1-[(4-fluorophenyl)methyl]-4,5-dimethyl-1H-imidazol-2-yl}methyl)amino]methyl}-6-(hydroxymethyl)pyridine-4-carboxylic acid] | > 10 µM | > 10 µM | 1.53 µM | 4.95 µM | 0.755 µM |  |  |  | 
2 | COc1ccc(CC(C)C)c(CNCc2cc(C(=O)O)cc(CO)n2)n1 [Compound 84, 2-(hydroxymethyl)-6-[({[6-methoxy-3-(2-methylpropyl)pyridin-2-yl]methyl}amino)methyl]pyridine-4-carboxylic acid] | > 10 µM | > 10 µM | 0.251 µM | 0.673 µM |  | 6.2 µM |  |  | 
3 | Cc1cc(C(=O)O)cc(CNCc2nnc(C(C)O)n2Cc2ccc(F)cc2)n1 (stereo not drawn) [Compound 85, 2-{[({4-[(4-fluorophenyl)methyl]-5-(1-hydroxyethyl)-4H-1,2,4-triazol-3-yl}methyl)amino]methyl}-6-methylpyridine-4-carboxylic acid] | > 10 µM | > 10 µM | 0.461 µM | 1.86 µM |  | > 10 µM | > 10 µM |  | 
4 | CCc1nnc(CNCc2cc(C(=O)O)cc(C)n2)n1Cc1cccc(C(C)O)c1 (stereo not drawn) [Compound 86, 2-({[(5-ethyl-4-{[3-(1-hydroxyethyl)phenyl]methyl}-4H-1,2,4-triazol-3-yl)methyl]amino}methyl)-6-methylpyridine-4-carboxylic acid] | > 10 µM | > 10 µM | > 10 µM | > 10 µM |  | > 10 µM | > 10 µM | > 10 µM | > 10 µM
5 | Cc1cc(OCc2ccccc2)c(CCNCc2cc(C(=O)O)cc(CO)n2)nn1 [Compound 87, 2-[({2-[4-(benzyloxy)-6-methylpyridazin-3-yl]ethyl}amino)methyl]-6-(hydroxymethyl)pyridine-4-carboxylic acid] | > 10 µM | > 10 µM | 1.7 µM | 2.3 µM |  | > 10 µM | > 10 µM |  | 
6 | O=C(O)c1cc(CO)nc(CNCc2nc(CO)cn2Cc2ccc(F)cc2)c1 [Compound 88, 2-{[({1-[(4-fluorophenyl)methyl]-4-(hydroxymethyl)-1H-imidazol-2-yl}methyl}amino]methyl}-6-(hydroxymethyl)pyridine-4-carboxylic acid] |  | 3.47 µM | 0.585 µM | 1.27 µM | 0.246 µM |  |  |  | 
7 | Cc1ccc(OCCC(C)C)c(CCNCc2cc(C(=O)O)cc(C)n2)c1 [Compound 89, 2-methyl-6-[({2-[5-methyl-2-(3-methylbutoxy)phenyl]ethyl}amino)methyl]pyridine-4-carboxylic acid] | > 10 µM | > 10 µM | 2.3 µM | > 10 µM |  | > 10 µM | > 10 µM |  | > 10 µM
8 | CCc1nnc(CNCc2cc(C(=O)O)cc(C)n2)n1CCCc1ccccc1 [Compound 90, 2-[({[5-ethyl-4-(3-phenylpropyl)-4H-1,2,4-triazol-3-yl]methyl}amino)methyl]-6-methylpyridine-4-carboxylic acid] | > 10 µM | > 10 µM | 2.94 µM | 6.97 µM |  | > 10 µM | > 10 µM |  | 

Results, then the compound that gave them:

Row | IC50 [1, 5] | IC50 [1, 6] | IC50 [2, 7] | IC50 [3, 8] | IC50 [4] | IC50 [4, 9] | IC50 [4, 10] | IC50 ([2]; AlphaLISA assay, read-out: HDME Inhibition KDM2B (IC50)) | IC50 [3, 11] | SMILES
9 | > 10 µM | > 10 µM | 0.328 µM | 1.11 µM |  | > 10 µM | > 10 µM |  |  | CCc1cnc(CNCc2cc(C(=O)O)cc(C)n2)n1CCCC(C)C [Compound 91, 2-[({[5-ethyl-1-(4-methylpentyl)-1H-imidazol-2-yl]methyl}amino)methyl]-6-methylpyridine-4-carboxylic acid]
10 | > 10 µM | > 10 µM | 0.053 µM | 1.23 µM |  | > 10 µM | > 10 µM |  |  | COc1ccc(OCc2ccccc2)c(CNCc2cc(C(=O)O)cc(C)n2)n1 [Compound 92, 2-[({[3-(benzyloxy)-6-methoxypyridin-2-yl]methyl}amino)methyl]-6-methylpyridine-4-carboxylic acid]
11 | > 10 µM | > 10 µM | 0.032 µM | 1.48 µM |  | > 10 µM | > 10 µM |  |  | COc1ccc(OCc2ccccc2)c(CNCc2cc(C(=O)O)cc(CO)n2)n1 [Compound 93, 2-[({[3-(Benzyloxy)-6-methoxypyridin-2-yl]methyl}amino)methyl]-6-(hydroxymethyl)pyridine-4-carboxylic acid]
12 | > 10 µM | > 10 µM | 0.047 µM | 2.03 µM |  | > 10 µM | > 10 µM |  |  | CCc1nnc(CNCc2cc(C(=O)O)cc(CO)n2)n1CCCC(C)C [Compound 94, 2-[({[5-ethyl-4-(4-methylpentyl)-4H-1,2,4-triazol-3-yl]methyl}amino)methyl]-6-(hydroxymethyl)pyridine-4-carboxylic acid]
13 | > 10 µM | > 10 µM | 0.389 µM | 9.65 µM |  | > 10 µM | > 10 µM |  |  | O=C(O)c1cc(CO)nc(CNCc2nnc(-c3cccs3)n2CCCc2ccccc2)c1 [Compound 95, 2-(hydroxymethyl)-6-[({[4-(3-phenylpropyl)-5-(thiophen-2-yl)-4H-1,2,4-triazol-3-yl]methyl}amino}methyl]pyridine-4-carboxylic acid]
14 | > 10 µM | > 10 µM | 0.061 µM | 1.81 µM |  | > 10 µM | > 10 µM |  |  | CC#CCC(c1ccc(F)cc1)n1ccnc1CNCc1cc(C(=O)O)cc(C)n1 (stereo not drawn) [Compound 96, 2-{[({1-[1-(4-fluorophenyl)pent-3-yn-1-yl]-1H-imidazol-2-yl}methyl)amino]methyl}-6-methylpyridine-4-carboxylic acid]
15 | > 10 µM | > 10 µM | 0.308 µM | > 10 µM |  | > 10 µM | > 10 µM |  | > 10 µM | CC(C)Cc1ccc(OCc2ccccc2)nc1CNCc1cc(C(=O)O)cc(CO)n1 [Compound 97, 2-[({[6-(benzyloxy)-3-(2-methylpropyl)pyridin-2-yl]methyl}amino)methyl]-6-(hydroxymethyl)pyridine-4-carboxylic acid]
